{"source": "patent US20220221445A1", "about": "“USES OF PATIENT-DERIVED INTESTINAL ORGANOIDS FOR CELIAC DISEASE DIAGNOSIS SCREENING AND TREATMENT” (The Board of TrusteesoftheLelandStanfordJuniorUniversity, priority 2019, published 2022)", "test_system": "active CeD organoids", "test": "IL-15 expression and IL-15 gain-of-function in CeD organoids", "assay_type": "cell-based, human", "conditions": "gain-of-function treatment", "description": "IL-15 loss-of-function is studied in gliadin-treated, active CeD organoids +/− IL-15 neutralization by soluble recombinant IL-15 receptor (soluble hIL15Rα, R&D #7194-IR) or anti-human IL-15 neutralizing antibody (R&D #MAB647). Endpoints include inhibition of the following gliadin-induced responses: (1) HLA-DQ2:gliadin tetramer-positive T cell abundance by FACS, (2) tetramer(+) CD4^+ T cell or tetramer(−) CD8^+ IEL activation by scRNA-seq and Nanostring digital transcript counting of FACS-sorted immune subsets and (3) inhibition of gliadin-induced epithelial apoptosis and proliferation. Gain-of-function recombinant IL-15 treatment (R&D #247-ILB) of CeD organoids enhances gliadin-induced (1) expansion of HLA-DQ2:gliadin tetramer^82-positive T cells by FACS, (2) activation of these tetramer(+) CD4^+ T cells or tetramer(−) CD8^+ IELs by scRNA-seq and FACS/Nanostring analysis of immune subsets and (3) induction of epithelial apoptosis and proliferation.", "data": [{"substance": "recombinant IL-15: recombinant IL-15 (R&D #247-ILB)", "values": [{"measurement": "effect on gliadin-induced tetramer-positive T cell expansion, T cell activation, epithelial apoptosis and proliferation", "result": "enhances"}]}]}
